{"source": "ChEMBL document CHEMBL1201862", "about": "“PubChem BioAssay data set” (2004)", "key": {"[1]": {"assay": "DRD fibroblast viability loss – cell-based, non-viral oncogenic, luminescence, dose response (AID 1934)", "format": "functional", "settings": "Homo sapiens"}, "BJ [2]": {"system": "BJ", "assay": "BJ-TERT-LT-ST fibroblast viability loss – cell-based, RAS-independent, luminescence, dose response (AID 1935);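 further: BJ fibroblasts immortalized with TERT plus LT and ST oncogenes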", "format": "functional", "settings": "Homo sapiens"}, "BJ [3]": {"system": "BJ", "assay": "cells", "format": "functional, cell-based", "settings": "Homo sapiens"}, "BJ [4]": {"system": "BJ", "assay": "growth inhibition of engineered Ras-driven BJ cells – cell-based, alamar blue fluorescence, cherrypicked samples, dose response (AID 2631)", "format": "functional", "settings": "Homo sapiens"}, "BJ [5]": {"system": "BJ", "assay": "BJ-TERT fibroblast viability loss – cell-based, RAS-independent, luminescence, dose response (AID 1933)", "format": "functional", "settings": "Homo sapiens"}, "[6]": {"assay": "viability of uninfected HEp-2 cells – cell-based, HTS, cytotoxicity control for RSV inhibitor project, dose response (AID 2410)", "format": "functional", "settings": "human respiratory syncytial virus"}, "HeLa": {"system": "HeLa", "assay": "ATP-based viability loss in HeLa cells – cell-based, CellTiter-Glo luminescence, cherry-pick samples, cytotoxicity control for MITF activator project, dose response (AID 540259)", "format": "functional", "settings": "Homo sapiens"}, "[7]": {"assay": "HEK-293T viability loss after treatment – luminescence, T-cell screen hits, cytotoxicity control for TCR NF-kB inhibitor project, dose response (AID 489026);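 further: cells exposed to compound about 14 hours before the viability readout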", "format": "functional, cell-based"}, "[8]": {"assay": "alpha-synuclein stem-loop luciferase translation blockers – H4 neuroglioma cells, luminescence, confirmation (AID 1988)", "format": "functional, cell-based"}, "[9]": {"assay": "microbe, parasite or virus in culture", "format": "functional", "settings": "Mycobacterium tuberculosis"}, "[10]": {"assay": "luciferase reporter signal suppression in cells – H4 neuroglioma cells, luminescence, dose response (AID 1990)", "format": "functional, cell-based"}, "[11]": {"assay": "Luminescence Cell-Based Dose Response HTS to Identify Inhibitors of 5'UTR Stem-Loop Driven Prion Protein mRNA Translation in H4 Neuroglioblastoma Cells. [Related pubchem assays: 1827 (Project Summary), 1813 (Primary HTS)]", "format": "functional"}, "Vero [12]": {"system": "Vero", "assay": "cells", "format": "functional", "settings": "Chlorocebus sabaeus"}, "Vero [13]": {"system": "Vero", "assay": "mammalian cell viability reduction – secondary assay, cytotoxicity control for West Nile virus antiviral project, dose response (AID 1650)", "format": "functional", "settings": "Chlorocebus sabaeus"}, "Vero [14]": {"system": "Vero", "assay": "cells", "format": "functional, cell-based", "settings": "Chlorocebus sabaeus"}, "Cytochrome P450 1A2": {"target": "T1, Cytochrome P450 1A2 (Homo sapiens, UniProt P05177)", "T1 sequence (P05177 whole entry)": "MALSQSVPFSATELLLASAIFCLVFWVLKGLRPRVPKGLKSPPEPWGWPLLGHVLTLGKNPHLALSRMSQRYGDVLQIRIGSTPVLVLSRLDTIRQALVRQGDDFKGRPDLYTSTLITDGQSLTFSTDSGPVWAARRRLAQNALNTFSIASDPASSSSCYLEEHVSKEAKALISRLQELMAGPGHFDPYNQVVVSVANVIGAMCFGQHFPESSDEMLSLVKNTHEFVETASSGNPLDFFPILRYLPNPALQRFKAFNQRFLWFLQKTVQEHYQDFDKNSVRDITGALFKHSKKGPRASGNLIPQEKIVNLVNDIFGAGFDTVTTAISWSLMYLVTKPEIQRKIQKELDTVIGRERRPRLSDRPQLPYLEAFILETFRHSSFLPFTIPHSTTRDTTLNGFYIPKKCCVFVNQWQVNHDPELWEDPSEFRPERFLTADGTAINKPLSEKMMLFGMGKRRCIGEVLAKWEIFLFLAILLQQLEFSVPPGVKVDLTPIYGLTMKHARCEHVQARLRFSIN"}, "Cytochrome P450 3A4": {"target": "Cytochrome P450 3A4 (Homo sapiens, UniProt P08684)", "sequence (P08684 whole entry)": "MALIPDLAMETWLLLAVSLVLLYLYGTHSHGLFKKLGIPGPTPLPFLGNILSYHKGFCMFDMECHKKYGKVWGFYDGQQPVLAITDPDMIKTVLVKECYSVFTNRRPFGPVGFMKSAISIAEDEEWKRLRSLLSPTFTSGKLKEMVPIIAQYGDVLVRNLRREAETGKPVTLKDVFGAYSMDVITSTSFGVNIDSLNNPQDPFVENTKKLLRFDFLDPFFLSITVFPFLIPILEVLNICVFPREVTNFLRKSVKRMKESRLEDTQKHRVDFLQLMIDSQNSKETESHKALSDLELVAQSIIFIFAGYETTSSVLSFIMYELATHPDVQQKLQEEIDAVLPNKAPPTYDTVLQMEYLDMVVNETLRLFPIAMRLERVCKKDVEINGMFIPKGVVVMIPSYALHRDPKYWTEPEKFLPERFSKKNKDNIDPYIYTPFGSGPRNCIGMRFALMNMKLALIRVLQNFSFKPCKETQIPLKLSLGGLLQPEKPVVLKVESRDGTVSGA"}, "[15]": {"target": "Heat shock protein HSP 90-alpha (Homo sapiens, UniProt P07900)", "format": "functional, organism-based"}, "[16]": {"target": "T2, Heat shock factor protein 1 (Mus musculus, UniProt P38532)", "T2 sequence (P38532 whole entry)": "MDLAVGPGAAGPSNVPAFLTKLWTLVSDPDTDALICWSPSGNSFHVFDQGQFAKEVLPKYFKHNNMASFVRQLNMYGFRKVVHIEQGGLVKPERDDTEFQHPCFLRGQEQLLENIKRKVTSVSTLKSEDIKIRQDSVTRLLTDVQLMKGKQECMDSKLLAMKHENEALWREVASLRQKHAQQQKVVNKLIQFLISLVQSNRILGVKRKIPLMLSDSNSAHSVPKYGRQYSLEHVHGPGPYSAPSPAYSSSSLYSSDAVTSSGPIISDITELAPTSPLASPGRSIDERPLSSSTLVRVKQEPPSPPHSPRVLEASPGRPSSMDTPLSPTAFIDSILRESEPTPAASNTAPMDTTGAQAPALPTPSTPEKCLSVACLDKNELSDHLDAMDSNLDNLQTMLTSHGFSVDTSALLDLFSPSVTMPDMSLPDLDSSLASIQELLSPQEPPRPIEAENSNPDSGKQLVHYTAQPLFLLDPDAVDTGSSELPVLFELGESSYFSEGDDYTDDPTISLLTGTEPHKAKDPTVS", "assay": "enhancement of HSF1-driven luciferase signal – cell-based, NIH3T3, luminescence, dose retest, confirmation (AID 435004);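 further: stress induced by proteasome inhibitor MG132 added 30 min after compound; actives raise luminescence as potentiators of the MG132 stress response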", "format": "functional"}}, "note": "The source made the active and inactive calls."}
{"molecule": "C(=N\\Nc1nc2ccccc2[nH]1)/c1ccc2ncccc2c1", "values": [{"measurement": "EC50", "setting": "[1]", "result": "2.32 µM (inconclusive)"}, {"measurement": "EC50", "setting": "BJ [2]", "result": "30.7 µM (active)"}, {"measurement": "EC50", "setting": "BJ [3]", "result": "2.75 µM (inconclusive)"}, {"measurement": "EC50", "setting": "BJ [4]", "result": "> 133 µM (inactive)"}, {"measurement": "EC50", "setting": "BJ [5]", "result": "10.8 µM (active)"}, {"measurement": "CC50", "setting": "[6]", "result": "2.99 µM (active)"}]}
{"molecule": "Cc1ccc(-c2noc(C3CCCCC3)n2)cc1", "values": [{"measurement": "AC50", "setting": "HeLa", "result": "79.6 µM (active)"}]}
{"molecule": "CN(/N=C/c1ccc2c(c1)OCO2)c1ccccc1", "values": [{"measurement": "AC50", "setting": "HeLa", "result": "98.3 µM (active)"}]}
{"molecule": "CCCCOc1ccc(Br)cc1/C(C)=N/NC1=NCCN1", "values": [{"measurement": "EC50", "setting": "[1]", "result": "6.08 µM (active)"}, {"measurement": "EC50", "setting": "BJ [2]", "result": "6.41 µM (inconclusive)"}, {"measurement": "EC50", "setting": "BJ [3]", "result": "8.49 µM (inconclusive)"}, {"measurement": "IC50", "setting": "[7]", "result": "46.8 µM (inactive)"}, {"measurement": "EC50", "setting": "BJ [4]", "result": "0.619 µM (inconclusive)"}, {"measurement": "EC50", "setting": "[8]", "result": "3.86 µM (active)"}, {"measurement": "CC50", "setting": "[9]", "result": "8.31 µM (active)"}, {"measurement": "EC50", "setting": "BJ [5]", "result": "3.18 µM (inconclusive)"}, {"measurement": "EC50", "setting": "[10]", "result": "4.71 µM (inconclusive)"}, {"measurement": "EC50", "setting": "[11]", "result": "4.92 µM (active)"}]}
{"molecule": "O=S(=O)(c1cccs1)N1CCN(c2ccnc3cc(Cl)ccc23)CC1", "values": [{"measurement": "CC50", "setting": "Vero [12]", "result": "22 µM (active)"}, {"measurement": "EC50", "setting": "[8]", "result": "> 120 µM (not active)"}, {"measurement": "CC50", "setting": "[6]", "result": "14.3 µM (active)"}, {"measurement": "EC50", "setting": "[10]", "result": "13.5 µM (active)"}, {"measurement": "CC50", "setting": "Vero [13]", "result": "30 µM (active)"}, {"measurement": "EC50", "setting": "[11]", "result": "13.1 µM (active)"}, {"measurement": "IC50", "setting": "Vero [14]", "result": "> 25 µM (active)"}]}
{"molecule": "S=C1SCN(CCN2CCOCC2)CN1Cc1ccccc1", "values": [{"measurement": "CC50", "setting": "Vero [12]", "result": "24.4 µM (active)"}, {"measurement": "AC50", "setting": "Cytochrome P450 1A2", "result": "6.31 µM (inconclusive)"}, {"measurement": "AC50", "setting": "Cytochrome P450 3A4", "result": "28.2 µM (inconclusive)"}, {"measurement": "IC50", "setting": "Vero [14]", "result": "> 25 µM (active)"}]}
{"molecule": "O=C(c1ccc2c(=O)n(C3CCCC3)c(=S)[nH]c2c1)N1CCc2ccccc21", "values": [{"measurement": "AC50", "setting": "[15]", "result": "3.49 µM (active)"}, {"measurement": "EC50", "setting": "[16]", "result": "> 260 µM (inactive)"}]}
